The text below walks through data of patent publication US20230071574A1, “ANTI-HAIR LOSS AND HAIR GROWTH INTEGRATED CORE-SHELL MICRONEEDLE PATCH” (Tangyi Holdings (Shenzhen) Limited, priority 2021, published 2023).

In this test the test system is mouse models with androgenic hair loss. Put plainly: Therapeutic effect of microneedle patches in mouse models with androgenic hair loss built by topical testosterone. The note with it: testosterone-induced androgenic hair loss mice; patches used 15 days, replaced every three days; Minoxidil solution applied daily for 13 days. In kind it is in vivo. How it is done: The therapeutic effect of the anti-hair loss and hair growth integrated core-shell microneedle patch is tested, the mouse models with androgenic hair loss are built by topical administration of testosterone solution every day for 28 days, five groups of mouse models with androgenic hair loss are used to test the effect of the microneedle patch, one of the groups is a model group to which only testosterone solution is applied, the blank microneedle patch, the nano-enzyme microneedle patch (prepared in Comparative Example 1) and the core-shell microneedle patch (prepared in Embodiment 1) are used on the other three groups of mouse models with androgenic hair loss respectively, the patches are used for 15 days and replaced every three days, a Minoxidil solution is used for the last group and applied every day for 13 consecutive days. The measurement results are shown in Table 1, and the therapeutic effect of the anti-hair loss and hair growth integrated core-shell microneedle patch is judged by scoring the hair diameter, percentage of Ki67 positive cells and hair cycle.

The structures appear in SMILES notation.

For the molecule `Nc1cc(N2CCCCC2)nc(N)[n+]1[O-]` [Minoxidil], the Hair cycle score was 22, the Hair diameter is 11 μm and the Ki67 positive cells was 20%.
